Data on one substance can be found in patent US20100279941A1, “CD36 MODULATION AND USES THEREOF” (priority 2009, published 2010).

Test [1] has as its system CD36^+/+ and CD36^−/− mice. The experiment in a line: Ventricular and ejection volumes by ECG-gated μPET after transient myocardial ischemia. It is filed as in vivo. The settings on record: EP 80317-treated WT mice vs 0.9% NaCl. The protocol: (§1) Experimental model of IHD: Transient left coronary artery ligation in vivo. Mice were subjected to a transient LCAL surgery as described before, with minor modifications [Tarnayski et al., 2004]. Mice were injected i.p. with buprenorphine (0.05 mg/kg) and placed in an induction chamber with inhalation anesthesia comprised of 3% isoflurane mixed with 100% oxygen. Mice were intubated with a blunt ended 20-gauge catheter into the trachea via the mouth and mechanically ventilated at a tidal volume of 7 ml/kg at 130 respirations/min with a MiniVent™ mouse ventilator (model 845, Harvard Apparatus, Saint-Laurent, QC, Canada). Anesthesia was maintained with 1.5-2% isoflurane and the animals were kept warm using electrical heating pads during the surgical procedure. The chest was opened by a horizontal incision through the skin and muscle layers at the third intercostal space exposing the left side of the heart. […] Visual blanching distal to the coronary occlusion confirmed myocardial ischaemia. Lidocaine (6 mg/kg) was administered i.p. just following occlusion and prior to reperfusion. After 30 minutes, the PE10 tubing was removed allowing reperfusion. The lungs were reinflated and the chest wound closed layer by layer before extubation. At 6 hours following reperfusion, mice were anesthetized (isoflurane), a blood sample withdrawn, and the heart arrested in diastole by an intravenous injection of 1 M KCl (0.5 mL). Hearts were immediately frozen at −80° C. unless otherwise stated.
Imaging experiments. Imaging experiments were performed with the avalanche photodiode-based small animal PET scanner (μPET) [Lecomte et al., 1996]. Before imaging, the heart position was localized with a Doppler probe (0.64 cm, 9 MHz; Parks Medical Electronics). […]
Imaging Data Analysis. For [^11C]-acetate images, dynamic series of 25 frames each were sorted out whereas 27 frames were used for ^18FDG and ^18FTHA imaging, and were reconstructed and analyzed using multicompartmental analysis [Menard et al., 2009] or the Patlak method for FTHA [Patlak and Blasberg, 1985]. […]

In test [2] the test system is Akt. Briefly: Western blot of left ventricle: phosphorylated Akt to total Akt. The test is classed as in vivo, mice. The protocol: as §1, with “At 6 hours following reperfusion, mice were anesthetized (isoflurane), a blood sample withdrawn, and the heart arrested in diastole by an intravenous injection of 1 M KCl (0.5 mL).” left out
Western blot analysis. Total ventricular protein lysates were prepared as described previously [Bodart et al., 2002]. Left ventricles were homogenized in PBS containing a protease inhibitor cocktail (Roche Applied Science, Indianapolis, Ind., USA) and 1 mM sodium orthovanadate. Homogenates were incubated for 10 min on ice with an equal volume of lysis buffer (NaCl 300 mM, Tris-HCl 100 mM, 2% Triton X-100, 0.2% SDS, 50 mM NaF, 4 mM EDTA, 1 mM sodium orthovanadate and protein inhibitors, pH=7.5), and centrifuged at 14,000 g for 30 minutes at 4° C. The protein concentration of the su pernatant was determined by the bicinchoninic acid (BCA) protein assay (Pierce Biotechnology, Rockford, Ill., USA). Equal amounts (50 or 100 μg) of protein extracts were separated on 10% SDS-polyacrylamide gels and transferred electrophoretically to polyvinylidene difluoride (PVDF) membranes (Bio-Rad Laboratories, Hercules, Calif., USA) for immunoblotting. […] Antibody binding was detected by enhanced chemiluminescence using an alpha Imager™ (Alpha Innotech Corporation, San Leandro, Calif., USA). Quantification of the digital images obtained was performed using ImageQuant™ 5.2 software (Molecular Dynamics, Sunnyvale, Calif., USA).

With “HAIC-2MeDTrp-DLys-Trp-DPhe-Lys-NH2 [EP 80317]”, the “increase of end-systolic ventricular volume” value in test [1] was determined as 26%. In addition, in test [1] (p<0.01), the “increase of end-diastolic ventricular volume” value is on record as 31% and the “increase of stroke volume” value amounted to 33%. The “increase of P-Akt to total Akt band density ratio” value in test [2] (6 hours reperfusion, CD36^+/+ mice, p<0.01) is 57%. Besides, the “effect on P-Akt/Akt ratio” value in test [2] (6 hours reperfusion, CD36^−/− mice, in words) was “no effect”. Moreover, the “increase of P-Akt/Akt density ratio” value in test [2] (48 hours reperfusion, CD36^+/+ mice, p<0.01) stood at 89%. The “effect on Akt phosphoprotein signal” value in test [2] (48 hours reperfusion, genotype not printed in the sentence (FIG. 7D), in words) is given as “no significant effect”.
